34 compounds from patent publication US20240173419A1, “CDK2 DEGRADERS AND USES THEREOF” (Kymera Therapeutics, Inc., priority 2022, published 2024) can be followed below.

For the test, the target named is T1, CDK2 (Homo sapiens, UniProt P24941).
T1 construct: endogenous in cells; host or cells: MKN1 cells
The experiment in a line: CDK2 degradation in MKN1 cells (AlphaLISA). The following applies: for CDK2 degradation 14 h: Average Dmax % / DC50: 14 h incubation; for DC50: read-out: CDK2 degradation 14 h: Mean external-Abs DC50. Type of test: cell-based. In a few lines:
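MKN1 cells (2e4/well) treated 14 h at 37° C with 11-point 1:5 dilutions (0.001 nM-10 μM, 0.1% DMSO). CDK2 in lysates quantified by AlphaLISA, no-cell background subtracted; DC50 from four-parameter logistic fit.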
Background: Bead proximity is the source of the signal in Alpha formats.

Molecules are shown by their SMILES.

Usually DC50 stands for the concentration giving 50% degradation. In the case of `Cc1cc(S(=O)(=O)NC2CCC(CN3CCN(c4cc(Cl)c(C5CCC(=O)NC5=O)cc4F)CC3)CC2)ccc1Nc1ncc(C(F)(F)F)c(N2CCCC(C)(O)C2)n1` (stereo not drawn) [I-800], the “CDK2 degradation 14 h: Average Dmax %” value is “A (A (>75% o))” and the DC50 was less than 0.1 µM. In the case of `Cc1cc(S(=O)(=O)C2CC3(CCN(CC4CCN(c5ccc6c(c5F)n(C)c(=O)n6C5CCC(=O)NC5=O)CC4)CC3)C2)ccc1Nc1ncc2c(n1)N(C1CCCC1)C(=O)C21CC1` (stereo not drawn) [I-529], the “CDK2 degradation 14 h: Average Dmax %” value is reported as “A (A (>75% o))” and the DC50 was less than 0.1 µM. Consider `Cc1cc(S(=O)(=O)C2CC3(CCN(CC4CCN(c5ccc(NC6CCC(=O)NC6=O)cc5)CC4)CC3)C2)ccc1Nc1ncc2cc(Cl)c(=O)n(C3CCCC3)c2n1` (stereo not drawn) [I-37], for which the “CDK2 degradation 14 h: Average Dmax %” value is on record as “B (B (>50% -75%))” and the 50% degradation concentration (DC50) is 0.1 to 0.5 µM. As for `Cc1cc(S(=O)(=O)NC2CCN(CC3CCN(c4ccc(C5CCC(=O)NC5=O)cc4F)CC3)CC2F)ccc1Nc1ncc(C(F)(F)F)c(N2CCCC(C)(O)C2)n1` (stereo not drawn) [I-1140], the “CDK2 degradation 14 h: Average Dmax %” value is “A (A (>75% o))” and the half-maximal degradation concentration (DC50) is less than 0.1 µM. With `Cc1cc(S(=O)(=O)N2CCN(CCCCOCCCc3ccc4c(c3)n(C)c(=O)n4C3CCC(=O)NC3=O)CC2)ccc1Nc1ncc2ccc(=O)n(C3CCCC3)c2n1` (stereo not drawn) [I-459], the “CDK2 degradation 14 h: Average Dmax %” value is given as “B (B (>50% -75%))” and the DC50 lay within 0.1 to 0.5 µM. For `Cc1cc(S(=O)(=O)C2CC3(CCN(CC4CCN(c5ccc(NC6CCC(=O)NC6=O)cc5F)CC4)CC3)C2)ccc1Nc1ncc2cc(Cl)c(=O)n(C3CCCC3)c2n1` (stereo not drawn) [I-36], in that order: “B (B (>50% -75%))” and less than 0.1 µM. In the case of `CC1(O)CCCN(c2nc(Nc3ccc(S(=O)(=O)N4CCN(CC5CCC(Oc6ccc(C7CCC(=O)NC7=O)cc6)CC5)CC4)cc3C(F)F)ncc2C(F)(F)F)C1` (stereo not drawn) [I-1044], the “CDK2 degradation 14 h: Average Dmax %” value is recorded as “D (D (<25%))” and the DC50 is more than 1 µM. For the compound `Cc1cc(S(=O)(=O)C2CC3(CCN(CC4CCN(c5ccc(NC6CCC(=O)NC6=O)cc5C)CC4)CC3)C2)ccc1Nc1ncc2cc(Cl)c(=O)n(C3CCCC3)c2n1` (stereo not drawn) [I-75], the “CDK2 degradation 14 h: Average Dmax %” value is reported as “B (B (>50% -75%))” and the half-maximal degradation concentration (DC50) lay within 0.1 to 0.5 µM. Consider `Cc1cc(S(=O)(=O)NC2CCC(CN3CCN(c4cc(F)cc(NC5CCC(=O)NC5=O)c4)CC3)CC2)ccc1Nc1ncc(C(F)(F)F)c(N2CCCC(C)(O)C2)n1` (stereo not drawn) [I-1144], for which the “CDK2 degradation 14 h: Average Dmax %” value was “A (A (>75% o))” and the DC50 lay within 0.1 to 0.5 µM. As to `CC1(O)CCN(c2nc(Nc3ccc(S(=O)(=O)NC4CCN(CC5CCN(c6ccc(C7CCC(=O)NC7=O)cc6F)CC5)CC4F)cc3F)ncc2C(F)(F)F)CC1` (stereo not drawn) [I-1050], the “CDK2 degradation 14 h: Average Dmax %” value is reported as “A (A (>75% o))” and the DC50 was less than 0.1 µM.

For `[2H]C([2H])([2H])c1cc(S(=O)(=O)NC2CCC(CN3CCN(c4ccc(C5CCC(=O)NC5=O)c(F)c4)CC3)CC2)ccc1Nc1ncc(C(F)(F)F)c(N2CCCC(C)(O)C2)n1` (stereo not drawn) [I-1072], the “CDK2 degradation 14 h: Average Dmax %” value is on record as “A (A (>75% o))”. As to `Cc1cc(S(=O)(=O)N2CCC(N3CCC(CN(C)c4cccc5c4n(C)c(=O)n5C4CCC(=O)NC4=O)CC3)CC2)ccc1Nc1ncc2cc(C(F)F)c(=O)n(C3CCCC34CC4)c2n1` (stereo not drawn) [I-383], the “CDK2 degradation 14 h: Average Dmax %” value was “A (A (>75% o))” and the DC50 was less than 0.1 µM. Turning to `Cc1cc(S(=O)(=O)NC2CCC(CN3CCN(c4ccc(C5CCC(=O)NC5=O)c(F)c4)CC3)CC2)ccc1Nc1ncc(C(F)(F)F)c(N2CCCC(C)(O)C2)n1` (stereo not drawn) [I-1072], the DC50 was less than 0.1 µM. In the case of `Cc1cc(S(=O)(=O)C2CC3(CCN(CC4CCN(c5ccc6c(c5F)n(C)c(=O)n6C5CCC(=O)NC5=O)CC4)CC3)C2)ccc1Nc1ncc2c(n1)N(C1CCCC1)C(=O)C2(C)C` (stereo not drawn) [I-524], the “CDK2 degradation 14 h: Average Dmax %” value is reported as “A (A (>75% o))” and the DC50 is less than 0.1 µM. Consider `Cc1cc(S(=O)(=O)C2CC3(CCN(CC4CCN(c5cccc6c5n(C)c(=O)n6C5CCC(=O)NC5=O)CC4)CC3)C2)ccc1Nc1ncc2c(n1)N(C1CCCC1)C(=O)C21CC1` (stereo not drawn) [I-42], for which the “CDK2 degradation 14 h: Average Dmax %” value is “A (A (>75% o))” and the DC50 is less than 0.1 µM. With `CC1(O)CCCN(c2nc(Nc3ccc(S(=O)(=O)NC4CCC(CN5CCN(c6ccc(C7CCC(=O)NC7=O)c(F)c6)CC5)CC4)cc3F)ncc2C(F)(F)F)C1` (stereo not drawn) [I-1117], the “CDK2 degradation 14 h: Average Dmax %” value was “A (A (>75% o))” and the DC50 was less than 0.1 µM. For `Cc1cc(S(=O)(=O)NCCCC2CCN(c3ccc(N4CCC(=O)NC4=O)cc3)CC2)ccc1Nc1ncc2cc(Cl)c(=O)n(C3CCCC3)c2n1` [I-412], the “CDK2 degradation 14 h: Average Dmax %” value is on record as “C (C (>25% -50%))” and the half-maximal degradation concentration (DC50) was more than 1 µM. For `Cc1cc(S(=O)(=O)C2CCN(C(=O)CN3CCN(c4cccc5c4n(C)c(=O)n5C4CCC(=O)NC4=O)CC3)CC2)ccc1Nc1ncc2cc(Cl)c(=O)n(C3CCCC3)c2n1` (stereo not drawn) [I-48], in that order: “B (B (>50% -75%))” and less than 0.1 µM. As for `Cc1cc(S(=O)(=O)NCCOC2CCC(N(C)CC3CCN(c4ccc5c(c4)n(C)c(=O)n5C4CCC(=O)NC4=O)CC3)CC2)ccc1Nc1ncc2ccc(=O)n(C3CCCC3)c2n1` (stereo not drawn) [I-469], the “CDK2 degradation 14 h: Average Dmax %” value is “A (A (>75% o))” and the DC50 is less than 0.1 µM. For `CN(CC1CCC(NS(=O)(=O)c2ccc(Nc3ncc(C(F)(F)F)c(N4CCCC(C)(O)C4)n3)c(C(F)F)c2)CC1)C1CN(c2ccc(C3CCC(=O)NC3=O)c(F)c2)C1` (stereo not drawn) [I-1045] the same measures were “B (B (>50% -75%))” and 0.1 to 0.5 µM. Regarding `Cc1cc(S(=O)(=O)C2CC3(CCN(CC4CCN(c5ccc6c(c5F)n(C)c(=O)n6C5CCC(=O)NC5=O)CC4)CC3)C2)ccc1Nc1ncc(C(F)(F)F)c(N2CCC(C)C(C)(O)C2)n1` (stereo not drawn) [I-849], the “CDK2 degradation 14 h: Average Dmax %” value is given as “B (B (>50% -75%))” and the DC50 is less than 0.1 µM.

Turning to `Cc1cc(S(=O)(=O)NC2CCC(CN3CCN(c4cc(C)c(C5CCC(=O)NC5=O)cc4F)CC3)CC2)ccc1Nc1ncc(C(F)(F)F)c(N2CCCC(C)(O)C2)n1` (stereo not drawn) [I-940], the “CDK2 degradation 14 h: Average Dmax %” value is “A (A (>75% o))” and the half-maximal degradation concentration (DC50) is less than 0.1 µM. Take `Cc1cc(S(=O)(=O)NCCO[C@H]2CC[C@H](CN3CCN(c4ccc5c(c4)n(C)c(=O)n5C4CCC(=O)NC4=O)CC3)CC2)ccc1Nc1ncc2cc(Cl)c(=O)n(C3CCCC3)c2n1` (stereo partly drawn) [I-432]: the “CDK2 degradation 14 h: Average Dmax %” value was “A (A (>75% o))” and the DC50 is less than 0.1 µM. As to `Cc1cc(S(=O)(=O)NC2CC(N3CCN(CC4CCN(c5ccc(NC6CCC(=O)NC6=O)cc5C)CC4)CC3)C2)ccc1Nc1ncc(C(F)(F)F)c(N2CCCC(C)(O)C2)n1` (stereo not drawn) [I-712], the “CDK2 degradation 14 h: Average Dmax %” value was “B (B (>50% -75%))” and the DC50 was less than 0.1 µM. Consider `Cn1c(=O)n(C2CCC(=O)NC2=O)c2ccc(N3CCC(CN4CCC5(CC4)CC(S(=O)(=O)c4ccc(Nc6ncc(C(F)(F)F)c(N7CCCC(C)(O)C7)n6)c(Cl)c4)C5)CC3)c(F)c21` (stereo not drawn) [I-855], for which the “CDK2 degradation 14 h: Average Dmax %” value is “B (B (>50% -75%))” and the DC50 was less than 0.1 µM. Consider `CC1CN(CC2CCN(c3ccc(C4CCC(=O)NC4=O)c(F)c3)CC2)CCC1NS(=O)(=O)c1ccc(Nc2ncc(C(F)(F)F)c(N3CCCC(C)(O)C3)n2)c(F)c1` (stereo not drawn) [I-1061], for which the “CDK2 degradation 14 h: Average Dmax %” value is given as “A (A (>75% o))” and the DC50 is less than 0.1 µM.

`Cc1cc(S(=O)(=O)NC2CC(N3CCN(CC4CCN(c5ccc(C6CCC(=O)NC6=O)c(Cl)c5)CC4)CC3)C2)ccc1Nc1ncc(C(F)(F)F)c(N2CCCC(C)(O)C2)n1` (stereo not drawn) [I-713]: the “CDK2 degradation 14 h: Average Dmax %” value is recorded as “A (A (>75% o))” and the half-maximal degradation concentration (DC50) was less than 0.1 µM. `Cc1cc(S(=O)(=O)C(C)(C)CCO[C@H]2CC[C@H](CN3CCC(c4ccc5c(c4)n(C)c(=O)n5C4CCC(=O)NC4=O)CC3)CC2)ccc1Nc1ncc2cc(Cl)c(=O)n(C3CCCC3)c2n1` (stereo partly drawn) [I-65]: the “CDK2 degradation 14 h: Average Dmax %” value was “A (A (>75% o))” and the DC50 is less than 0.1 µM. For the compound `Cc1nc(S(=O)(=O)NC2CCC(CN3CCN(c4ccc(C5CCC(=O)NC5=O)c(F)c4)CC3)CC2)ccc1Nc1ncc(C(F)(F)F)c(N2CCCC(C)(O)C2)n1` (stereo not drawn) [I-1049], the “CDK2 degradation 14 h: Average Dmax %” value is “A (A (>75% o))” and the half-maximal degradation concentration (DC50) was less than 0.1 µM. As to `Cc1cc(S(=O)(=O)C2CC3(CCN(CC4CCN(c5ccc(NC6CCC(=O)NC6=O)c(F)c5)CC4)CC3)C2)ccc1Nc1ncc2cc(Cl)c(=O)n(C3CCCC3)c2n1` (stereo not drawn) [I-90], the “CDK2 degradation 14 h: Average Dmax %” value is “B (B (>50% -75%))” and the 50% degradation concentration (DC50) lay within 0.1 to 0.5 µM.

The term Dmax denotes the greatest extent of degradation seen. For the compound `Cc1cc(S(=O)(=O)C2CCN(CCN3CCN(c4cccc5c4n(C)c(=O)n5C4CCC(=O)NC4=O)CC3)CC2)ccc1Nc1ncc2c(n1)N(C1CCCC1)C(=O)C21CC1` (stereo not drawn) [I-50, 3-[4-[4-[2-[4-[4-[(7′-Cyclopentyl-6′-oxo-spiro[cyclopropane-1,5′-pyrrolo[2,3-d]pyrimidine]-2′-yl)amino]-3-methyl-phenyl]sulfonyl-1-piperidyl]ethyl]piperazin-1-yl]-3-methyl-2-oxo-benzimidazol-1-yl]piperidine-2,6-dione], the DC50 was less than 0.1 µM. Further, the maximal degradation (Dmax) (MKN-1, 14 h incubation) is more than 75%. Turning to `Cc1cc(S(=O)(=O)N2CCC(CN(C)C3CCN(c4cccc5c4n(C)c(=O)n5C4CCC(=O)NC4=O)CC3)CC2)ccc1Nc1ncc2c(n1)N(C1CCCC1)C(=O)C21CC1` (stereo not drawn) [I-536], the “CDK2 degradation 14 h: Average Dmax %” value is “A (A (>75% o))” and the DC50 is less than 0.1 µM.

Take `Cc1cc(S(=O)(=O)N2CCC(CCN3CCN(c4ccc5c(c4F)n(C)c(=O)n5C4CCC(=O)NC4=O)CC3)CC2)ccc1Nc1ncc2ccc(=O)n(C3CCCC3)c2n1` (stereo not drawn) [I-287]: the “CDK2 degradation 14 h: Average Dmax %” value was “A (A (>75% o))” and the DC50 was less than 0.1 µM.

`CC1(O)CCCN(c2nc(Nc3ccc(S(=O)(=O)NC4CCC(CN5CCN(c6ccc(C7CCC(=O)NC7=O)c(F)c6)CC5)CC4)cc3C(F)F)ncc2C(F)(F)F)C1` (stereo not drawn) [I-944]: the “CDK2 degradation 14 h: Average Dmax %” value is recorded as “A (A (>75% o))” and the 50% degradation concentration (DC50) is less than 0.1 µM.
